In one assay the test system is E. coli ATCC 25922. The assay can be described thus: MIC assay, CLSI broth microdilution, E. coli ATCC 25922 (AECO001). The class given is cell-based. The conditions noted are these: for MIC: Escherichia coli, read-out: MIC AECO001. The protocol:
(§1) Minimum inhibitory concentrations (MIC) were determined by reference Clinical and Laboratory Standards Institute (CLSI) broth microdilution methods per M7-A7 [2006]. Quality control ranges utilizing E. coli ATCC 25922, P. aeruginosa ATCC 27853 and S. aureus ATCC 29213, and interpretive criteria for comparator agents were as published in CLSI M100-S17 [2007]. Briefly, serial two-fold dilutions of the test compounds were prepared at 2× concentration in Mueller Hinton Broth. The compound dilutions were mixed in 96-well assay plates in a 1:1 ratio with bacterial inoculum. The inoculum was prepared by suspension of a colony from an agar plate that was prepared the previous day. Bacteria were suspended in sterile saline and added to each assay plate to obtain a final concentration of 5×10^5 CFU/mL. The plates were incubated at 35° C. for 20 hours in ambient air.
These MIC assays were conducted following the same protocol as set forth in Example 110. As shown, substituted sisomicin derivatives with groups other than methyl at the 6′-position have improved activity against strains expressing the AAC6′-modifying enzymes.

The subject of the next assay is P. aeruginosa ATCC 27853. In words: MIC assay, CLSI broth microdilution, P. aeruginosa ATCC 27853 (APAE001). The class given is cell-based. Conditions: for MIC: Pseudomonas aeruginosa, read-out: MIC APAE001. The protocol:
as §1
In general terms: Dilution methods test growth across graded concentrations, often in twofold steps.

Where [1] appears, read: AECO001 is ATCC25922, 35° C., 20 hours.
Setting [2] is: APAE001 is ATCC27853, 35° C., 20 hours.

≈ marks a conversion by molar mass, not a printed value. Like-named read-outs stand apart in the source and are kept apart here.

The term MIC denotes the smallest concentration in the dilution series that meets the test's criterion for growth inhibition.

Take `CN[C@@H]1[C@@H](O)[C@@H](O[C@@H]2[C@@H](O)[C@H](O[C@H]3OC(CNCCC(N)C4CC4)=CC[C@H]3N)[C@@H](N)C[C@H]2NC(=O)[C@@H](O)CN)OC[C@]1(C)O` (stereo partly drawn) [Example 52, 6′-(3-Amino-3-cyclopropyl-propyl)-1-(3-amino-2(S)-hydroxy-propionyl)-sisomicin]: the “MIC AECO001” value in the assay on E. coli ATCC 25922 (setting [1]) is listed as “A (MIC's of 1.0 μg/mL or less = A)”. Also, the “MIC APAE001” value in the assay on P. aeruginosa ATCC 27853 (setting [2]) is recorded as “B (MIC's of greater than 1.0 μg/mL to 16.0 μg/mL = B)”.

`CN[C@@H]1[C@@H](O)[C@@H](O[C@@H]2[C@@H](O)[C@H](O[C@H]3OC(CNC[C@H]4C[C@H](O)CN4)=CC[C@H]3N)[C@@H](N)C[C@H]2NC(=O)[C@@H](O)CN)CC[C@]1(C)O` [Example 53, 6′-(Methyl-4(S)-hydroxy-pyrrolidin-2(R)-yl)-1-(3-amino-2(S)-hydroxy-propionyl)-sisomicin]: the MIC in the assay with E. coli ATCC 25922 (ATCC25922, 20 h) was 1 to 16 µg/mL (≈ 1.58 to 25.3 µM); in the assay with P. aeruginosa ATCC 27853 (ATCC27853, 20 h) it was more than 16 µg/mL.

`CN[C@@H]1[C@@H](O)[C@@H](O[C@@H]2[C@@H](O)[C@H](O[C@H]3OC(CNCCCO)=CC[C@H]3N)[C@@H](N)C[C@H]2NC(=O)[C@@H](O)CN)OC[C@]1(C)O` [Example 54, 6′-(3-Propanol)-1-(3-amino-2(S)-hydroxy-propionyl)-sisomicin]: the MIC in the assay on E. coli ATCC 25922 (ATCC25922, 20 h) was less than 1 µg/mL; in the assay with P. aeruginosa ATCC 27853 (ATCC27853, 20 h) it was 1 to 16 µg/mL (≈ 1.69 to 27 µM).

With `CN[C@@H]1[C@@H](O)[C@@H](O[C@@H]2[C@@H](O)[C@H](O[C@H]3OC(CNCC(C)(C)N)=CC[C@H]3N)[C@@H](N)C[C@H]2NC(=O)[C@@H](O)CN)OC[C@]1(C)O` [Example 55, 6′-(2-Methyl-2-amino-propyl)-1-(3-amino-2(S)-hydroxy-propionyl)-sisomicin], the MIC is 1 to 16 µg/mL (≈ 1.65 to 26.4 µM) in the assay with E. coli ATCC 25922 (ATCC25922, 20 h) and more than 16 µg/mL with P. aeruginosa ATCC 27853 (ATCC27853, 20 h).

Regarding `CN[C@@H]1[C@@H](O)[C@@H](O[C@@H]2[C@@H](O)[C@H](O[C@H]3OC(CNCC4(N)CCC4)=CC[C@H]3N)[C@@H](N)C[C@H]2NC(=O)[C@@H](O)CN)OC[C@]1(C)O` [Example 56, 6′-(Methyl-1-amino-cyclobutyl)-1-(3-amino-2(S)-hydroxy-propionyl)-sisomicin], the MIC with E. coli ATCC 25922 (ATCC25922, 20 h) was less than 1 µg/mL; in the assay with P. aeruginosa ATCC 27853 (ATCC27853, 20 h) it was more than 16 µg/mL.

Turning to `CN[C@@H]1[C@@H](O)[C@@H](O[C@@H]2[C@@H](O)[C@H](O[C@H]3OC(CNC[C@H]4C[C@H](N)C4)=CC[C@H]3N)[C@@H](N)C[C@H]2NC(=O)[C@@H](O)CN)OC[C@]1(C)O` [Example 59, 6′-(Methyl-trans-3-amino-cyclobutyl)-1-(3-amino-2(S)-hydroxy-propionyl)-sisomicin], the MIC was less than 1 µg/mL in the assay on E. coli ATCC 25922 (ATCC25922, 20 h) and 1 to 16 µg/mL (≈ 1.62 to 25.9 µM) in the assay with P. aeruginosa ATCC 27853 (ATCC27853, 20 h).

Consider `CN[C@@H]1[C@@H](O)[C@@H](O[C@@H]2[C@@H](O)[C@H](O[C@H]3OC(CNC[C@H]4C[C@H](N)C4)=CC[C@H]3N)[C@@H](N)C[C@H]2NC(=O)C2(O)CC(N)C2)OC[C@]1(C)O` (stereo partly drawn) [Example 60], for which the MIC is less than 1 µg/mL with E. coli ATCC 25922 (ATCC25922, 20 h) and 1 to 16 µg/mL (≈ 1.55 to 24.9 µM) in the assay on P. aeruginosa ATCC 27853 (ATCC27853, 20 h).

In the case of `CNCC1=CC[C@@H](N)[C@@H](O[C@H]2[C@H](O)[C@@H](O[C@H]3OC[C@](C)(O)[C@H](NC)[C@H]3O)[C@H](NC(=O)C3(O)CNC3)C[C@@H]2N)O1` [Example 61], the results for the minimum inhibitory concentration (MIC) in the assay on E. coli ATCC 25922 (setting [1]) and in the assay on P. aeruginosa ATCC 27853 (setting [2]) were less than 1 µg/mL and 1 to 16 µg/mL (≈ 1.78 to 28.5 µM), respectively. In the assay on E. coli ATCC 25922 (Table 3, E. coli ATCC25922), this molecule registered an MIC AECO001 of 1 µg/mL (≈ 1.78 µM).

In the case of `CN[C@@H]1[C@@H](O)[C@@H](O[C@@H]2[C@@H](O)[C@H](O[C@H]3OC(CNCCO)=CC[C@H]3N)[C@@H](N)C[C@H]2NC(=O)C2(O)CC(N)C2)OC[C@]1(C)O` (stereo partly drawn) [Example 62], the minimum inhibitory concentration (MIC) was less than 1 µg/mL in the assay on E. coli ATCC 25922 (ATCC25922, 20 h) and 1 to 16 µg/mL (≈ 1.65 to 26.5 µM) in the assay on P. aeruginosa ATCC 27853 (ATCC27853, 20 h).

Consider `CN[C@@H]1[C@@H](O)[C@@H](O[C@@H]2[C@@H](O)[C@H](O[C@H]3OC(CNC[C@H]4C[C@H](N)C4)=CC[C@H]3N)[C@@H](N)C[C@H]2NC(=O)C2(O)CNC2)OC[C@]1(C)O` [Example 63], for which the minimum inhibitory concentration (MIC) was less than 1 µg/mL in the assay with E. coli ATCC 25922 (ATCC25922, 20 h) and 1 to 16 µg/mL (≈ 1.59 to 25.4 µM) in the assay with P. aeruginosa ATCC 27853 (ATCC27853, 20 h).

For `CN[C@@H]1[C@@H](O)[C@@H](O[C@@H]2[C@@H](O)[C@H](O[C@H]3OC(CNC[C@@H]4C[C@H](N)CN4)=CC[C@H]3N)[C@@H](N)C[C@H]2NC(=O)[C@@H](O)CN)OC[C@]1(C)O` [Example 65, 6′-(Methyl-4(S)-amino-pyrrolidin-2(S)-yl)-1-(3-amino-2(S)-hydroxy-propionyl)-sisomicin], the MIC in the assay on E. coli ATCC 25922 (ATCC25922, 20 h) fell in the range of 1 to 16 µg/mL (≈ 1.58 to 25.3 µM); in the assay with P. aeruginosa ATCC 27853 (ATCC27853, 20 h) it was 1 to 16 µg/mL (≈ 1.58 to 25.3 µM).

Regarding `CN[C@@H]1[C@@H](O)[C@@H](O[C@@H]2[C@@H](O)[C@H](O[C@H]3OC(CNCC4(CN)CC4)=CC[C@H]3N)[C@@H](N)C[C@H]2NC(=O)[C@@H](O)CN)OC[C@]1(C)O` [Example 66, 6′-(Methyl-1-aminomethyl-cyclopropyl)-1-(3-amino-2(S)-hydroxy-propionyl)-sisomicin], the MIC in the assay on E. coli ATCC 25922 (ATCC25922, 20 h) was less than 1 µg/mL; in the assay with P. aeruginosa ATCC 27853 (ATCC27853, 20 h) it was 1 to 16 µg/mL (≈ 1.62 to 25.9 µM).

In the case of `CN[C@@H]1[C@@H](O)[C@@H](O[C@@H]2[C@@H](O)[C@H](O[C@H]3OC(CNCC4(N)CC4)=CC[C@H]3N)[C@@H](N)C[C@H]2NC(=O)[C@@H](O)CN)OC[C@]1(C)O` [Example 67, 6′-(Methyl-1-Amino-cyclopropyl)-1-(3-amino-2(S)-hydroxy-propionyl)-sisomicin], the MIC in the assay with E. coli ATCC 25922 (ATCC25922, 20 h) lay within 1 to 16 µg/mL (≈ 1.66 to 26.5 µM); in the assay on P. aeruginosa ATCC 27853 (ATCC27853, 20 h) it was 1 to 16 µg/mL (≈ 1.66 to 26.5 µM).

With `CN[C@@H]1[C@@H](O)[C@@H](O[C@@H]2[C@@H](O)[C@H](O[C@H]3OC(CNCC(O)CCN)=CC[C@H]3N)[C@@H](N)C[C@H]2NC(=O)[C@@H](O)CN)OC[C@]1(C)O` (stereo partly drawn) [Example 68, 6′-(2-Hydroxy-4-amino-butyl)-1-(3-amino-2(S)-hydroxy-propionyl)-sisomicin], the MIC lay in the range of 1 to 16 µg/mL (≈ 1.61 to 25.7 µM) in the assay with E. coli ATCC 25922 (ATCC25922, 20 h) and 1 to 16 µg/mL (≈ 1.61 to 25.7 µM) in the assay with P. aeruginosa ATCC 27853 (ATCC27853, 20 h).

As to `CN[C@@H]1[C@@H](O)[C@@H](O[C@@H]2[C@@H](O)[C@H](O[C@H]3OC(CNC[C@H]4C[C@@H](N)[C@@H](O)C4)=CC[C@H]3N)[C@@H](N)C[C@H]2NC(=O)[C@@H](O)CN)OC[C@]1(C)O` [Example 69, 6′-(Methyl-1(R)-amino-2(S)-hydroxy-cyclopent-4(S)-yl)-1-(3-amino-2(S)-hydroxy-propionyl)-sisomicin], the MIC in the assay on E. coli ATCC 25922 (ATCC25922, 20 h) was less than 1 µg/mL; in the assay on P. aeruginosa ATCC 27853 (ATCC27853, 20 h) it was 1 to 16 µg/mL (≈ 1.54 to 24.7 µM).

For the molecule `CN[C@@H]1[C@@H](O)[C@@H](O[C@@H]2[C@@H](O)[C@H](O[C@H]3OC(CNCCC4(O)CNC4)=CC[C@H]3N)[C@@H](N)C[C@H]2NC(=O)[C@@H](O)CN)OC[C@]1(C)O` [Example 70, 6′-(Ethyl-2-(3-hydroxy-azetidin-3-yl))-1-(3-amino-2(S)-hydroxy-propionyl)-sisomicin], the MIC in the assay on E. coli ATCC 25922 (ATCC25922, 20 h) is 1 to 16 µg/mL (≈ 1.58 to 25.2 µM); with P. aeruginosa ATCC 27853 (ATCC27853, 20 h), more than 16 µg/mL.

`CN[C@@H]1[C@@H](O)[C@@H](O[C@@H]2[C@@H](O)[C@H](O[C@H]3OC(CNCC4CC4)=CC[C@H]3N)[C@@H](N)C[C@H]2NC(=O)C(O)C2CNC2)OC[C@]1(C)O` (stereo partly drawn) [Example 71, 6′-Methylcyclopropyl-1-(2-(azetidin-3-yl)-2-hydroxy-acetyl)-sisomicin]: the MIC is 1 to 16 µg/mL (≈ 1.63 to 26 µM) in the assay with E. coli ATCC 25922 (ATCC25922, 20 h) and more than 16 µg/mL with P. aeruginosa ATCC 27853 (ATCC27853, 20 h).

Turning to `CN[C@@H]1[C@@H](O)[C@@H](O[C@@H]2[C@@H](O)[C@H](O[C@H]3OC(CNC[C@H]4C[C@H](N)C4)=CC[C@H]3N)[C@@H](N)C[C@H]2NC(=O)C(O)C2CNC2)OC[C@]1(C)O` (stereo partly drawn) [Example 72, 6′-(Methyl-trans-3-amino-cyclobutyl)-1-(2-(azetidin-3-yl)-2-hydroxy-acetyl)-sisomicin], the MIC with E. coli ATCC 25922 (ATCC25922, 20 h) lay in the range of 1 to 16 µg/mL (≈ 1.55 to 24.9 µM); with P. aeruginosa ATCC 27853 (ATCC27853, 20 h) it was 1 to 16 µg/mL (≈ 1.55 to 24.9 µM).

Turning to `CN[C@@H]1[C@@H](O)[C@@H](O[C@@H]2[C@@H](O)[C@H](O[C@H]3OC(CNCC4CNC4)=CC[C@H]3N)[C@@H](N)C[C@H]2NC(=O)[C@@H](O)CN)OC[C@]1(C)O` [Example 73, 6′-(Methyl-azetidin-3-yl)-1-(3-amino-2(S)-hydroxy-propionyl)-sisomicin], the MIC in the assay with E. coli ATCC 25922 (ATCC25922, 20 h) lay within 1 to 16 µg/mL (≈ 1.66 to 26.5 µM); with P. aeruginosa ATCC 27853 (ATCC27853, 20 h), 1 to 16 µg/mL (≈ 1.66 to 26.5 µM).

For the origin of these results see patent US11117915B2, “Antibacterial aminoglycoside analogs” (Cipla USA, Inc., priority 2007, dated 2021).
